From patent US20030224525A1, “Enhanced photophysics of conjugated polymers” (The University of Chicago, priority 2002, published 2003) come the findings set out here.

A short description of this data set: Particle size by dynamic light scattering. It counts as physicochemical. The note with it: in solution; complex 1:1 mole ratio, filtered with 100 nanometer filter. The procedure: More striking results come from fluorescence microscopy of the polymer-surfactant complex (1:1 mole ratio). After filtration with a 100 nanometer filter, the 5×10^−5 M complex solution is perfectly clear and suitable for spectroscopic studies. However, when spread on a glass substrate (microscope slide) with a cover glass, incubated for 10 minutes at room temperature and observed under a 100×oil immerse objective, the polymer-surfactant complex consists of bright, uniform and well-defined nano-sized particles (FIG. 2A). […] The particle size was measured using dynamic light scattering methods. […] As a comparison, the measured particle size in pure MPS-PPV solution is about 9 nm with a broad gaussian distribution; while pure DOTAP solution contains particles ( presumably lipid bilayer assemblies) with a mean diameter of 57 nm, consistent with the literature value. The sizes of the polymer and complex particles are consistent with the results from fluorescence correlation spectroscopic experiments.
Since the spectra in FIG. 1 indicated the possibility of a second complex component in the polymer-surfactant mixture, the solution emission was examined using a shorter excitation wavelength (400 nm). As shown in FIG. 3 (inset A), the solution does container a very low concentration of species emitting at 465 nm. […]

For `CCCCCCCC/C=C\CCCCCCCC(=O)OCC(C[N+](C)(C)C)OC(=O)CCCCCCC/C=C\CCCCCCCC.[Cl-]` (stereo not shown) [DOTAP, N-[1-(2,3-Dioleoyloxy)propyl]-N,N,N,-trimethylammonium chloride], the average particle size stood at 57 nm.
